The values below come from paper PMC7931078 (Molecules, 2021).

Values after ≈ are worked out from the molar mass of the structure shown. “Also recorded” adds a separate entry of the source. Like-named read-outs stand apart in the source and are kept apart here.

For data set [1], the system named is Trypanosoma brucei brucei 427 trypomastigotes. The data set can be described thus: In vitro anti-trypanosomal assay. It is filed as cell-based. The note with it: 427 strain, 24 h, read-out: IC50 T. b. brucei. How it is done: Trypanosoma brucei brucei 427 trypomastigotes were cultured in iscove’s modified Dulbecco’s medium (IMDM; Lonza, Basel, Switzerland) supplemented with 10% fetal calf serum, HMI-9 supplement, hypoxanthine and penicillin/streptomycin at 37 °C in a 5% CO2 incubator. Serial dilutions of test compounds were incubated with the parasites in 96-well plates for 24 h and residual parasite viability in the wells determined as previously reported.

In data set [2] the test system is ESKAPE (E. faecium, A. baumanni, K. pneumoniae, P. aeruginosa, S. aureus) pathogens. The data set can be described thus: Antibacterial broth microdilution, ESKAPE pathogens. It counts as cell-based. The note with it: colistin and vancomycin as standards.
Data set [3] has as its system HEK293 cells. The data set can be described thus: In vitro cytotoxicity assay. It counts as cell-based. The note with it: Homo sapiens, HEK293, read-out: IC50 HEK293.
The test system of data set [4] is A. baumanni. The data set is described as follows: Antibacterial broth microdilution, A. baumanni. It is filed as cell-based. The note with it: read-out: MIC against A. baumanni.
Data set [5] has as its system S. aureus (MRSA). The data set is described as follows: microbe, parasite or virus in culture. It counts as cell-based. The note with it: Staphylococcus aureus, read-out: MIC against S. aureus (MRSA).
In data set [6] the test system is 3D7 strain of Plasmodium falciparum. The data set is described as follows: In vitro antiplasmodial assay (pLDH). It counts as cell-based.
The subject of data set [7] is Mycobacterium tuberculosis pMSp12::GFP. The data set is described as follows: microbe, parasite or virus in culture. It is filed as cell-based.
The test system of data set [8] is Mtb. More on the design: method as in PMID 29487031. The note with it: first line treatment regimen; cited from earlier work.
The mark [9] stands for this setting: Plasmodium falciparum, 3D7, 48 h, read-out: IC50 Pf 3D7, chloroquine sensitive strain 3D7, 48 h, pLDH.
[10] abbreviates: read-out: IC50 Pf 3D7, chloroquine sensitive strain 3D7, 48 h, pLDH.
[11] abbreviates: Mycobacterium tuberculosis, H37RV, 336 h.

As to `CCn1cc(C(=O)NCCNCCO)c(=O)c2cc(OCc3ccc(C(F)(F)F)cc3)c(Cl)cc21` [Compound 8c, 7-Chloro-1-ethyl-N-(2-((2-hydroxyethyl)amino)ethyl)-4-oxo-6-((4-(trifluoromethyl)benzyl)oxy)-1,4-dihydroquinolone-3-carboxamide], the IC50 is 1.5 µM in data set [1], less than 2 µM in data set [1] (Trypanosoma brucei) and greater than 32 µg/mL in data set [3]. In addition, the “activity against ESKAPE pathogens (in words)” value (from here on “activity”) in data set [2] is “moderate to poor activity; also recorded: moderate to weak, narrow spectrum activity”. In addition, the MIC in [4] was 32 µg/mL (≈ 62.5 µM); in data set [5], 16 µg/mL (≈ 31.3 µM).
Take `O=C(NCCNCCO)c1cn(Cc2ccccc2)c2cc(Cl)c(OCc3ccc(C(F)(F)F)cc3)cc2c1=O` [Compound 8g, 1-Benzyl-7-chloro-N-(2-((2-hydroxyethyl)amino)ethyl)-4-oxo-6-((4-(trifluoromethyl)benzyl)oxy)-1,4-dihydroquinolone-3-carboxamide]: the “activity” value in [2] is on record as “moderate to poor activity; also recorded: moderate to weak, narrow spectrum activity”. For the same compound, the IC50 in data set [6] (setting [9]) is 0.4 µM; in data set [6] (setting [10]) it was 0.46 µM; in data set [3], greater than 32 µg/mL. For the same compound, in data set [5], the MIC amounted to 32 µg/mL (≈ 55.7 µM). For the same compound, the MIC90 in data set [7] was 0.9 µM (≈ 0.517 µg/mL); in [7] (setting [11]) it was 0.9 to 2 µM (≈ 0.517 to 1.15 µg/mL).
Consider `CCOC(=O)c1cn(Cc2ccccc2)c2ccc(N)cc2c1=O` [Compound 12, Ethyl 6-amino-1-benzyl-4-oxo-1,4-dihydroquinolone-3-carboxylate], for which the values for the IC50 in data set [1] (Trypanosoma brucei), in data set [6] (setting [9]) and in [3] were greater than 20 µM, 10 µM and greater than 32 µg/mL, respectively. The compound also registered an MIC90 in data set [7] (setting [11]) greater than 125 µM.
For `CCOC(=O)c1cn(Cc2ccccc2)c2ccc(/N=C/c3ccc([N+](=O)[O-])o3)cc2c1=O` [Compound 13, Ethyl-1-benzyl-6-(((5-nitrofuran-2-yl)methylene)amino)-4-oxo-1,4-dihydroquinolone-3-carboxylate], the IC50 is 5.2 µM in data set [1] (Trypanosoma brucei), less than 10 µM in data set [6] (setting [9]), 6.5 µM in data set [6] (setting [10]) and greater than 32 µg/mL in [3]. Besides, the “activity” value in data set [2] is listed as “moderate to poor activity; also recorded: moderate to weak, narrow spectrum activity”. Further, in [4], the MIC turned out to be 16 µg/mL (≈ 35.9 µM). Moreover, the MIC90 in data set [7] turned out to be 8.0 µM (≈ 3.56 µg/mL); in [7] (setting [11]) it was 8 µM (≈ 3.56 µg/mL).
For `Nc1ccc2c(c1)c(=O)c(C(=O)NCCOCCO)cn2Cc1ccccc1` [Compound 14, 6-Amino-1-benzyl-N-(2-(2-hydroxyethoxy)ethyl)-4-oxo-1,4-dihydroquinolone-3-carboxamide], the IC50 in data set [1] (Trypanosoma brucei) is greater than 20 µM; in [6] (setting [9]) it was greater than 20 µM; in data set [3] it was greater than 32 µg/mL. Moreover, the “IC50 Pf 3D7” value in data set [6] (chloroquine sensitive strain 3D7, 48 h, pLDH) is given as “complete loss of antiplasmodial activity”. The MIC90 in data set [7] and in [7] (setting [11]) was greater than 125 µM in each case.
`CCn1cc(C(=O)OC)c(=O)c2cc(C(=O)/C=C/c3c(Cl)cccc3Cl)ccc21` [Compound 16, Methyl (E)-Methyl-6-(3-(2,6-dichlorophenyl)acryloyl)-1-ethyl-4-oxo-1,4-dihydroquinolone-3-carboxylate] had a melting point of 247 to 249 °C. Besides, in data set [1], the IC50 came out at 1.5 µM. Further, the IC50 in data set [1] (Trypanosoma brucei) was less than 2 µM. Also, the IC50 in data set [6] (setting [9]) came out at 11.7 µM. The half-inhibitory concentration (IC50) in [3] is greater than 32 µg/mL. Besides, the MIC90 in data set [7] worked out at 0.9 µM (≈ 0.387 µg/mL). Moreover, the MIC90 in data set [7] (setting [11]) fell in the range of 0.9 to 2 µM (≈ 0.387 to 0.861 µg/mL).
In the case of `CC[C@@H](CO)NCCN[C@@H](CC)CO` [ethambutol], in [8], the MIC is reported as 15 µM (≈ 3.06 µg/mL).
